Test results taken from the supplement of paper PMC9938120.

Tests used:
Assay in all cases: drug sensitivity score (DSS3, normalised partial AUC of % inhibition dose-response) (DSS (score)); higher = more sensitive (stronger inhibition of viability); extreme values may be limits of the assay
FMOC02_1 = patient-derived low-grade serous ovarian cancer cells; details: 72 h; library: FO5A; assay format: 2D, 384-well, CellTiter-Glo
In short: (§1)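 Patient-derived ovarian cancer cells (early passage, under 10) were dispensed onto 384-well flat clear-bottom plates pre-plated with compounds at five concentrations covering a 10,000-fold range. Plates were incubated 72 h at 37 °C, 5% CO2, and viability was read with CellTiter-Glo. Data were processed in Breeze. The drug sensitivity score (DSS3) is a partial area under the percent-inhibition dose-response curve, divided by the log of the upper asymptote; higher means more sensitive.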

FMOC02_2 = patient-derived low-grade serous ovarian cancer cells; details: 72 h; library: FO5A; assay format: 2D, 384-well, CellTiter-Glo
In short: as §1

FMOC02_3 = patient-derived low-grade serous ovarian cancer cells; details: 72 h; library: FO5A; assay format: 2D, 384-well, CellTiter-Glo
In short: as §1

FMOC03 = patient-derived mucinous ovarian cancer cells; details: 72 h; library: FO5A; assay format: 2D, 384-well, CellTiter-Glo
In short: as §1

FMOC04 = patient-derived high-grade serous ovarian cancer cells; details: 72 h; library: FO5A; assay format: 2D, 384-well, CellTiter-Glo
In short: as §1

FMOC06 = patient-derived mucinous ovarian cancer cells; details: 72 h; library: FO5A; assay format: 2D, 384-well, CellTiter-Glo
In short: as §1

FMOC09 = patient-derived high-grade serous ovarian cancer cells; details: 72 h; library: FO5A; assay format: 2D, 384-well, CellTiter-Glo
In short: as §1

FMOC11 = patient-derived high-grade serous ovarian cancer cells; details: 72 h; library: FO5A; assay format: 2D, 384-well, CellTiter-Glo
In short: as §1

FMOC14 = patient-derived high-grade serous ovarian cancer cells; details: 72 h; library: FO5A; assay format: 2D, 384-well, CellTiter-Glo
In short: as §1

FMOC17 = patient-derived low-grade serous ovarian cancer cells; details: 72 h; library: FO5A; assay format: 2D, 384-well, CellTiter-Glo
In short: as §1

FMOC22 = patient-derived mucinous ovarian cancer cells; details: 72 h; library: FO5A; assay format: 2D, 384-well, CellTiter-Glo
In short: as §1

FMOC24 = patient-derived high-grade serous ovarian cancer cells; details: 72 h; library: FO5A; assay format: 2D, 384-well, CellTiter-Glo
In short: as §1

FMOC25_2 = patient-derived low-grade serous ovarian cancer cells; details: 72 h; library: FO5A; assay format: 2D, 384-well, CellTiter-Glo
In short: as §1

FMOC27 = patient-derived low-grade serous ovarian cancer cells; details: 72 h; library: FO5A; assay format: 2D, 384-well, CellTiter-Glo
In short: as §1

FMOC28 = patient-derived low-grade serous ovarian cancer cells; details: 72 h; library: FO5A; assay format: 2D, 384-well, CellTiter-Glo
In short: as §1

FMOC25_1 = patient-derived low-grade serous ovarian cancer cells; details: 72 h; library: FO4B; assay format: 2D, 384-well, CellTiter-Glo
In short: as §1

| Structure (SMILES) | drug sensitivity score (FMOC02_1) | drug sensitivity score (FMOC02_2) | drug sensitivity score (FMOC02_3) | drug sensitivity score (FMOC03) | drug sensitivity score (FMOC04) | drug sensitivity score (FMOC06) | drug sensitivity score (FMOC09) | drug sensitivity score (FMOC11) | drug sensitivity score (FMOC14) | drug sensitivity score (FMOC17) | drug sensitivity score (FMOC22) | drug sensitivity score (FMOC24) | drug sensitivity score (FMOC25_2) | drug sensitivity score (FMOC27) | drug sensitivity score (FMOC28) | drug sensitivity score (FMOC25_1) |
| --- | --- | --- | --- | --- | --- | --- | --- | --- | --- | --- | --- | --- | --- | --- | --- | --- |
| CNC(=O)c1ccc(N2C(=S)N(c3cnc(C#N)c(C(F)(F)F)c3)C(=O)C23CCC3)cc1F [Apalutamide] | 0 | 0 | 0 | 0 | 0 | 0 | 0 | 0 | 0 | 0 | 0 | 0.45 | 0 | 0 | 3.4 |  |
| CONC(=O)c1ccccc1Nc1cc(Nc2cc(C)nn2C(C)C)ncc1Cl | 0 | 1.6 | 1 | 0 | 0 | 0 | 1.4 | 0 | 0 | 0.3 | 0 | 0.2 | 1.7 | 0 | 0 |  |
| O=C(Nc1cc(Oc2cc(F)c(NC(=O)C3(C(=O)Nc4ccc(F)cc4)CC3)cc2F)ccn1)C1CC1 [Altiratinib] | 4.9 | 5.2 | 5.1 | 5 | 1.05 | 6.9 | 1.7 | 2.4 | 5.1 | 3 | 4.3 | 8.2 | 9.1 | 5.1 | 3.3 |  |
| CC(C)(O)CNc1nc(Nc2ccnc(C(F)(F)F)c2)nc(-c2cccc(C(F)(F)F)n2)n1 [Enasidenib] | 1.5 | 2.5 | 0 | 1.4 | 0 | 0 | 0 | 0 | 0 | 2.3 | 0 | 0 | 1.7 | 0 | 4.4 |  |
| COc1ncc(-c2ccc3nccc(-c4ccnnc4)c3c2)cc1NS(=O)(=O)c1ccc(F)cc1F [Omipalisib] |  | 24.2 | 23.9 | 18.4 |  | 20.6 | 19.1 |  | 15.2 |  | 13.9 | 8.5 | 22.1 |  |  | 24.2 |
| C#Cc1cccc(Nc2ncnc3cc4c(cc23)OCCOCCOCCO4)c1 [Icotinib] |  | 11.2 | 10.7 | 9.7 |  | 3.4 | 8 |  | 2.1 |  | 1.8 | 1 | 7.1 |  |  | 9 |
| Cc1nc(-c2cn3c(n2)-c2ccc(-c4cnn(C(C)(C)C(N)=O)c4)cc2OCC3)n(C(C)C)n1 [Taselisib] |  | 12.7 | 12.2 | 4.5 |  | 9.6 | 10.1 |  | 4.3 |  | 2.9 | 0.85 | 8.6 |  |  | 8.2 |
| COc1cc(OC)c(/C=C/S(=O)(=O)Cc2ccc(OC)c(NCC(=O)O)c2)c(OC)c1 [Rigosertib] |  | 16.4 | 20.5 | 18.2 |  | 14.3 | 15.4 |  | 0.1 |  | 16.1 | 6.5 | 12 |  |  | 14.3 |
| COc1ccc(-c2ccc3ncc4c(c3c2)n(-c2ccc(N3CCNCC3)c(C(F)(F)F)c2)c(=O)n4C)cn1 [NVP-BGT226] |  | 24.7 | 27 | 17.4 |  | 15.2 | 11.9 |  | 14.9 |  | 14.4 | 10.7 | 26.7 |  |  | 27.5 |
| COC[C@H](NC(=O)c1cnc(C)s1)C(=O)N[C@@H](COC)C(=O)N[C@@H](Cc1ccccc1)C(=O)[C@@]1(C)CO1 [Oprozomib] |  | 13.1 | 15.1 | 17.3 |  | 12.9 | 10.6 |  | 19.5 |  | 16.6 | 20.9 | 20.4 |  |  | 14.6 |
| Cc1[nH]c2ccccc2c1CCNCc1ccc(/C=C/C(=O)NO)cc1 [Panobinostat] |  | 12.6 | 10.7 | 11.1 |  | 12.8 | 5.5 |  | 15.4 |  | 9.1 | 13.3 | 15.2 |  |  | 11.2 |
| COC(=O)C[C@](O)(CCCC(C)(C)O)C(=O)O[C@@H]1C(OC)=C[C@]23CCCN2CCc2cc4c(cc2[C@H]13)OCO4 [Omacetaxine] |  | 20.2 | 23.8 | 16.7 |  | 19 | 19.1 |  | 21.9 |  | 15.3 | 23.6 | 24.6 |  |  | 23.8 |
| CC(C)[C@H]1C(=O)N[C@@H](CCCNC(=N)N)C(=O)NCC(=O)N[C@@H](CC(=O)O)C(=O)N[C@H](Cc2ccccc2)C(=O)N1C [Cilengitide] |  | 0 | 1.3 | 0.1 |  | 0 | 4.3 |  | 1.9 |  | 0 | 2.4 | 0 |  |  | 0 |
| O=C(c1cc(Cc2n[nH]c(=O)c3ccccc23)ccc1F)N1CCN(C(=O)C2CC2)CC1 [Olaparib] |  | 1.7 | 5 | 1.4 |  | 3.6 | 3.2 |  | 4.4 |  | 2.4 | 4.6 | 3.2 |  |  | 3 |
| CNC(=O)c1ccccc1Nc1nc(Nc2ccc3c(c2OC)CCC[C@H](N2CCN(CCO)CC2)C3)ncc1Cl |  | 11.1 | 11.7 | 7.2 |  | 10.3 | 8.3 |  | 6 |  | 7.1 | 5.95 | 10.3 |  |  | 9 |
| Cc1nn(C)c(COc2ccc(N3CCN(S(=O)(=O)N(C)C)CC3)cc2)c1-c1cccc2c(CCCOc3cccc4ccccc34)c(C(=O)O)n(CCN3CCOCC3)c12 |  | 6 | 7.5 | 5.9 |  | 7 | 5.9 |  | 7.6 |  | 8.2 | 6.7 | 4.7 |  |  | 5.6 |
| COc1ccc(C[C@H](NC(=O)[C@H](C)NC(=O)CN2CCOCC2)C(=O)N[C@@H](Cc2ccccc2)C(=O)C2(C)CO2)cc1 (stereo in doubt) [ONX-0914] |  | 12.5 | 19.3 | 16.5 |  | 16.9 | 12.8 |  | 14.1 |  | 14.9 | 20.9 | 18.8 |  |  | 16.4 |
| COc1ccc(-c2nc(N3CCOCC3)c3sc(CN(C)c4ncc(C(=O)NO)cn4)cc3n2)cn1 [CUDC-907] |  | 34.3 | 33.2 | 32.8 |  | 31.2 | 18.4 |  | 31.4 |  | 31.1 | 33.7 | 29.1 |  |  | 29.2 |
| CC1(COc2ccc3c(c2)ncn3-c2ccc3cccc(N4CCC(N)CC4)c3n2)COC1 [Crenolanib] |  | 6.1 | 4.6 | 4.4 |  | 4.4 | 3 |  | 4.4 |  | 5 | 9.25 | 4.8 |  |  | 4.3 |
| COc1cccc2c1C(=O)c1c(O)c3c(c(O)c1C2=O)C[C@@](O)(/C(CO)=N/NC(=O)CCCCCN1C(=O)C=CC1=O)C[C@@H]3O[C@H]1C[C@H](N)[C@H](O)[C@H](C)O1 [Aldoxorubicin] |  | 5 | 7.8 | 3.9 |  | 4.4 | 6.1 |  | 4.7 |  | 4.5 | 5.2 | 7.9 |  |  | 5.3 |
| CN[C@@H]1C[C@H]2O[C@@](C)([C@@H]1OC)n1c3ccccc3c3c4c(c5c6ccccc6n2c5c31)C(=O)N[C@H]4O [UCN-01] |  | 33.1 | 33.7 | 17.2 |  | 23.2 | 20.7 |  | 19.8 |  | 15.9 | 24.4 | 34.4 |  |  | 31 |
| CC[C@@H]1C(=O)N(C)c2cnc(Nc3ccc(C(=O)N[C@H]4CC[C@H](N5CCN(CC6CC6)CC5)CC4)cc3OC)nc2N1C(C)C [Volasertib] |  | 6.1 | 7.6 | 3.5 |  | 1.2 | 5.1 |  | 0.4 |  | 3.9 | 2.9 | 8.5 |  |  | 3.2 |
| COc1cc(Nc2ncc(F)c(Nc3ccc4c(n3)NC(=O)C(C)(C)O4)n2)cc(OC)c1OC [Tamatinib] |  | 13 | 9.6 | 2.5 |  | 0 | 0.7 |  | 0 |  | 0 | 5.3 | 8.7 |  |  | 7.2 |
| CCOC(=O)CCNc1cc(N2CCc3ccccc3CC2)nc(-c2ccccn2)n1 [GSK-J4] |  | 0 | 3.2 | 3.2 |  | 4 | 0 |  | 1.3 |  | 4.3 | 3.9 | 7.5 |  |  | 6.7 |
| CCNC(=O)c1noc(-c2cc(C(C)C)c(O)cc2O)c1-c1ccc(CN2CCOCC2)cc1 [Luminespib] |  | 19.8 | 23 | 10.8 |  | 3.2 | 16.9 |  | 13 |  | 13.2 | 9.4 | 23.6 |  |  | 10.9 |
| CO[C@H]1C[C@@H]2CC[C@@H](C)[C@@](O)(O2)C(=O)C(=O)N2CCCC[C@H]2C(=O)O[C@H]([C@H](C)C[C@@H]2CC[C@@H](OCCO)[C@H](OC)C2)CC(=O)[C@H](C)/C=C(\C)[C@@H](O)[C@@H](OC)C(=O)[C@H](C)C[C@H](C)/C=C/C=C/C=C/1C [Everolimus] |  | 10 | 10.2 | 2.8 |  | 5.8 | 3.9 |  | 1.7 |  | 6.7 | 7.5 | 6.7 |  |  | 9.2 |
| CC[C@@H]1C(=O)N(C)c2cnc(Nc3ccc(C(=O)NC4CCN(C)CC4)cc3OC)nc2N1C1CCCC1 [BI 2536] |  | 6.7 | 9.3 | 5.2 |  | 2.1 | 9.1 |  | 0.4 |  | 5.1 | 2.25 | 7.3 |  |  | 5.8 |
| Cc1cc(Nc2cc(CN3CCOCC3)c3nc(C)c(Cc4ccc(Cl)cc4F)n3n2)n[nH]1 [Gandotinib] |  | 16.3 | 10.1 | 4.7 |  | 8.9 | 5.1 |  | 6.1 |  | 1.8 | 7.6 | 18.8 |  |  | 3.7 |
